Data from patent US9051310B2, “Nicotinamide derivative or salt thereof” (FUJIFILM Corporation, priority 2011, dated 2015).

Molecular target: T1, glutathione S-transferase (GST)-linked full-length human Syk protein (Homo sapiens, UniProt P43405)
T1 construct: glutathione S-transferase (GST)-linked full-length human Syk protein; purchased Carna Biosciences; host or cells: Baculovirus expression system
Assay: Syk enzyme assay
Type: biochemical
Details: 0.83 nM Syk, time-resolved fluorescence; read-out: IC50 of Syk-inhibitory activity
Summary of the method: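 Phosphotyrosine on a biotin-peptide substrate (0.5 μM) was read by time-resolved fluorescence at 615 and 665 nm with Eu-anti-pTyr antibody and APC-streptavidin after 1 h EDTA stop.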

Compound | IC50
COc1ccc([C@@H](Nc2nc(Nc3ccc4c(c3)c(N(C)C)nn4C)c(C(N)=O)cc2F)[C@H](C)N)cc1 [Example 2-342, 6-(((1R,2S)-2-amino-1-(4-methoxyphenyl)propyl)amino)-2-((3-(dimethylamino)-1-methyl-1H-indazol-5-yl)amino)-5-fluoronicotinamide] | 10 to 50 nM
COc1cc(Nc2nc(N[C@H](CCSC)[C@H](C)N)c(F)cc2C(N)=O)cc(OC)c1 [Example 2-345, 6-(((3R,4S)-4-amino-1-(methylthio)pentan-3-yl)amino)-2-((3,5-dimethoxyphenyl)amino)-5-fluoronicotinamide] | 10 to 50 nM
C[C@H](N)[C@H](Nc1nc(Nc2ccc3c(c2)c(OC(F)F)nn3C)c(C(N)=O)cc1F)C1CCC1 [Example 2-350, 6-(((1R,2S)-2-amino-1-cyclobutylpropyl)amino)-2-((3-(difluoromethoxy)-1-methyl-1H-indazol-5-yl)amino)-5-fluoronicotinamide] | < 10 nM
CC[C@H](N)[C@@H](C)Nc1nc(Nc2ccc3c(c2)c(OC(F)F)nn3C)c(C(N)=O)cc1F [Example 2-351, 6-(((2R,3S)-3-aminopentan-2-yl)amino)-2-((3-(difluoromethoxy)-1-methyl-1H-indazol-5-yl)amino)-5-fluoronicotinamide] | < 10 nM
CCC[C@@H](Nc1nc(Nc2ccc3c(c2)c(OC(F)F)nn3CCOC)c(C(N)=O)cc1F)[C@H](C)N [Example 2-353, 6-(((2S,3R)-2-aminohexan-3-yl)amino)-2-((3-(difluoromethoxy)-1-(2-methoxyethyl)-1H-indazol-5-yl)amino)-5-fluoronicotinamide] | < 10 nM
Cc1ncc(Nc2nc(N[C@H](c3ccc(C(F)(F)F)cc3)[C@H](C)N)c(F)cc2C(N)=O)cc1-n1nccn1 [Example 2-354, 6-(((1R,2S)-2-amino-1-(4-(trifluoromethyl)phenyl)propyl)amino)-5-fluoro-2-((6-methyl-5-(2H-1,2,3-triazol-2-yl)pyridin-3-yl)amino)nicotinamide] | 10 to 50 nM
COc1cc(Nc2nc(N[C@H](c3ccc(C(F)(F)F)cc3)[C@H](C)N)c(F)cc2C(N)=O)cc(OC)n1 [Example 2-355, 6-(((1R,2S)-2-amino-1-(4-(trifluoromethyl)phenyl)propyl)amino)-2-((2,6-dimethoxypyridin-4-yl)amino)-5-fluoronicotinamide] | < 10 nM
COc1cc(Nc2nc(N[C@H](c3ccccc3)[C@H](C)N)c(F)cc2C(N)=O)cc(OC)n1 [Example 2-356, 6-(((1R,2S)-2-amino-1-phenylpropyl)amino)-2-((2,6-dimethoxypyridin-4-yl)amino)-5-fluoronicotinamide] | 10 to 50 nM
COc1ccc([C@@H](Nc2nc(Nc3cc(OC)nc(OC)c3)c(C(N)=O)cc2F)[C@H](C)N)cc1 [Example 2-357, 6-(((1R,2S)-2-amino-1-(4-methoxyphenyl)propyl)amino)-2-((2,6-dimethoxypyridin-4-yl)amino)-5-fluoronicotinamide] | 10 to 50 nM
CC[C@H](N)[C@H](Nc1nc(Nc2cnc(N3CCOCC3)c(F)c2)c(C(N)=O)cc1F)C1CC1 [Example 2-359, 6-(((1R,2S)-2-amino-1-cyclopropylbutyl)amino)-5-fluoro-2-((5-fluoro-6-morpholinopyridin-3-yl)amino)nicotinamide] | 50 to 100 nM
CC[C@H](N)[C@H](Nc1nc(Nc2ccnc(OCCOC)c2)c(C(N)=O)cc1F)C1CC1 [Example 2-360, 6-(((1R,2S)-2-amino-1-cyclopropylbutyl)amino)-5-fluoro-2-((2-(2-methoxyethoxy)pyridin-4-yl)amino)nicotinamide] | 10 to 50 nM
CC[C@H](N)[C@H](Nc1nc(Nc2cc(OC)cc(OC)c2)c(C(N)=O)cc1F)C1CC1 [Example 2-361, 6-(((1R,2S)-2-amino-1-cyclopropylbutyl)amino)-2-((3,5-dimethoxyphenyl)amino)-5-fluoronicotinamide] | 10 to 50 nM
